25 molecules from PubChem BioAssay AID434923 (Broad Institute, 2010) can be followed below.

Usually EC50 stands for the concentration needed to bring the measured effect to its halfway point.

Inconclusive results are not listed. Activity calls are given as the source filed them.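 The calls were made as follows: active = fitted EC50 at most tenfold above the highest tested dose; inconclusive = flat fit with 30 to 70% signal loss, or poor fit; inactive = the rest.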

The test deals with NIH-3T3 fibroblasts viability, Alamar Blue fluorescence, 48 h. Description: NIH-3T3 fibroblast cytotoxicity, dose response, cytotoxicity control for reversing antifungal drug resistance, cell-based, Alamar Blue fluorescence (AID 434923). (In general: Alamar Blue is a resazurin reagent that responds to reducing activity.)
For the molecule `CC(C)COCc1ccc(O)c2ncccc12`, the EC50 was < 0.1 µM.
As to `CCCC(=O)NC(c1ccc(Cl)cc1)c1ccc2cccnc2c1O` (stereo not given), the concentration giving a half-maximal response (EC50) was 3.44 µM.
As for `Cc1ccc(/C=C/C(=O)c2ccccc(=O)c2O)cc1C`, the EC50 was > 26 µM (inactive).
The result for `O=C(NNC1=C(C(=O)C(F)(F)F)CCC1)c1ccc(Cl)cc1` reads > 26 µM (inactive); that for `Cc1nc2ccccc2cc1OCc1ccc(F)cc1`, > 26 µM (inactive).
As for `CCCC(=O)NC(c1ccccc1)c1ccc2cccnc2c1O` (stereo not given), the figure is > 26 µM (inactive).
With `Clc1ccc2c(c1)C(c1cccs1)=NNC(c1cccnc1)=N2`, the EC50 was > 26 µM (inactive).
The result for `O=C(Nc1nnc(CCc2ccccc2)s1)c1ccco1` reads > 26 µM (inactive); that for `O=C(Nc1nnc(-c2ccco2)o1)c1ccc(Cl)cc1`, > 26 µM (inactive).
As for `COc1ccc(-n2nc(C(=O)NCC(=O)N3CCN(c4ccccc4)CC3)c3ccccc3c2=O)c(OC)c1`, the figure is > 26 µM (inactive).
As for `COc1ccc(-c2nnc(NC(=O)c3ccc(F)cc3)o2)cc1`, the figure is > 26 µM (inactive); as for `O=C(Oc1c(Cl)cc(Cl)c2cccnc12)c1cccs1`, 21.8 µM; as for `O=C(Nc1nnc(SCc2ccc(Cl)cc2)s1)c1ccc2ccccc2n1`, 12 µM.
Regarding `CCOC(=O)c1c(-c2ccccc2Cl)cn2ccccc12`, the EC50 is > 26 µM (inactive).
The result for `Cc1ccc(Nc2nc(N)c([N+](=O)[O-])c(N3CCC(C)CC3)n2)cc1C` reads > 26 µM (inactive); that for `Nc1nccnc1C(=O)Nc1nnc(SCc2ccc(Cl)cc2)s1`, > 26 µM (inactive); that for `CCc1ccc2c(c1)/C(=C/C(=O)c1cccs1)C(=O)N2`, 14 µM.
Turning to `O=C1/C(=C\c2ccccc2)CCc2c1[nH]c1ccccc21`, the EC50 is > 26 µM (inactive).
As for `CC(C)N1CCc2c(sc(NC(=O)c3nc4ccccc4s3)c2C(N)=O)C1`, the figure is > 26 µM (inactive); as for `O=C(Nc1nnc(-c2ccc3c(c2)CCCC3)o1)c1ccc(Cl)cc1Cl`, > 26 µM (inactive).
The result for `COc1cc2c(cc1NC(=O)c1ccco1)CCCC2` reads > 26 µM (inactive); that for `O=C(Nc1nc(-c2ccccn2)cs1)c1ccc(Br)s1`, > 26 µM (inactive).
The result for `CCOC(=O)N1C(=O)C2(CCCCC2)N(c2ccc(C)cc2)C1=S` reads > 26 µM (inactive); that for `O=C(Nc1sc2c(c1C(=O)c1ccc(Cl)cc1)CCCC2)c1cccnc1`, > 26 µM (inactive).
In the case of `c1ccc2c(c1)OCC(CNc1ncnc3sccc13)O2` (stereo not given), the EC50 is > 12 µM (inactive).
